Experimental data taken from the METLIN SMRT retention time set (Domingo-Almenara et al. 2019).

Experiment: gradient 5% acetonitrile 3 min, to 50% in 2 min, to 85% in 15 min, held 3 min, 100 µL/min
Details: column: Zorbax Extend-C18 2.1 x 50 mm; eluents: water / acetonitrile, 0.1% formic acid
In short: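 Values are retention times taken from adduct peaks that software picked and an analyst inspected. The pure standards were run as mixtures of ~100 molecules on HPLC linked to a quadrupole time-of-flight mass spectrometer, in positive and negative ionization mode. A Zorbax Extend-C18 column (2.1 × 50 mm, 1.8 μm) was used at 100 μL/min with water and acetonitrile, each including 0.1% formic acid.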

| RP-LC retention time | SMILES |
| --- | --- |
| 1020 s | COc1ccc(CNC(=O)c2nnc(-c3ccc(S(=O)(=O)N4CCC(C)CC4)cc3)o2)cc1 |
| 975 s | Cc1ccc(S(=O)(=O)NCC(=O)Nc2ccc3c(c2)Cc2ccccc2-3)cc1 |
| 696 s | O=C(Nc1cccc(N2CCCS2(=O)=O)c1)Nc1cccs1 |
| 774 s | COC(=O)c1c(C)[nH]c(C(=O)N2CCC(CC(=O)NCc3ccc(Cl)cc3)CC2)c1C |
| 1310 s | O=C(N1CC(Oc2cccc(-c3nc(-c4ccccc4)no3)c2)C1)C1(c2ccccc2)CC1 |
| 720 s | COCCOc1ccc(C(=O)N2CCNC(=O)C2CC(=O)OC2CCCCC2)cc1 (stereo unspecified) |
| 867 s | CCN1C(=O)C2(CCN(C(=O)NC3CCCCC3)CC2)c2ccccc21 |
| 804 s | O=C(c1cccc2[nH]ccc12)N1CCC2(CC1)N=C(c1ccc(Cl)cc1)NO2 |
| 1060 s | Cc1c(-c2nnc(C3CCC3)o2)c(S(=O)(=O)Nc2cccc(Cl)c2F)c(C)n1C |
| 631 s | CC(C)(C)C(=O)N1C[C@@H](CO)[C@H](c2nc(-c3ccncc3)no2)C1 |
| 570 s | CCN1CCN(C(=O)C2CCN(c3nc4cccnc4s3)CC2)CC1 |
| 674 s | O=C(NCc1ccccn1)c1csc(Nc2ccc(OC(F)(F)F)cc2)n1 |
| 752 s | CCOC(=O)c1cnc2nc(C)ccc2c1Nc1cccc(Cl)c1 |
| 1070 s | COc1ccc(-c2nc(Cc3noc(-c4ccc(C#N)cc4)n3)c(C)o2)cc1 |
| 633 s | COc1nccnc1N1CCC(NC(=O)c2ccc3cc[nH]c3c2)C1 (stereo unspecified) |
| 723 s | O=C(Nc1cccc(Cl)c1F)N1CCCC(Cn2c(C3CC3)nc3cccnc32)C1 (stereo unspecified) |
| 584 s | CCOc1cc(=O)n2c(c1C(=O)Nc1ccc(C(N)=O)cc1)CCCC2 |
| 970 s | COc1cccc(-c2ccc(=O)n(CCc3nc(-c4cccc(F)c4)no3)n2)c1 |

| RP-LC retention time | SMILES |
| --- | --- |
| 713 s | COc1ccc(NC(=O)CSc2nc3nc(C)cc(C)n3n2)c(OC)c1 |
| 686 s | CCNCc1ccc(-c2cc(Cl)ccc2Cl)o1 |
| 736 s | CC(C)c1nncn1C1CCN(S(=O)(=O)Cc2cccc(Cl)c2)CC1 |
| 776 s | CCc1cc(=O)n(CC(=O)Nc2cc(F)ccc2C)c(N2CCOCC2)n1 |
| 626 s | COc1ccc(CN2CCc3nc(N4CCN(c5ncccn5)CC4)ncc3C2)cc1OC |
| 747 s | CCOC(=O)Nc1nc2c(s1)CN(S(=O)(=O)c1c(C)noc1C)CC2 |
| 783 s | COc1ccc(C(=O)Nc2c(C(=O)Nc3ccccc3OC)oc3cccnc23)cc1 |
| 606 s | CCCn1ccc2sc(C)c(C(=O)N3CCN(C4CCCCC4)CC3)c2c1=O |
| 1100 s | CSc1cccc(NC(=O)C2CCN(S(=O)(=O)c3ccc(-c4noc(C5CC5)n4)cc3)CC2)c1 |
| 880 s | Cc1cccc(CNC(=O)CC2CCN(C(=O)c3[nH]c(C)c(C(=O)OC(C)C)c3C)CC2)c1 |
| 869 s | Cc1ccccc1NC(=O)C1C(=O)NC2(C)CC1c1ccccc1O2 (stereo unspecified) |
| 727 s | COc1ccc(OCc2nc(-c3ccc4ncn(C(C)C)c4c3)no2)cc1 |
| 1020 s | Cc1ccc(NC(=O)N2CCc3nc(-c4ccc(F)cc4)ncc3C2)cc1C |
| 722 s | O=C(Cn1cnc2nc(N3CCCC(C(=O)NC4CC4)C3)sc2c1=O)NCCC1=CCCCC1 (stereo unspecified) |
| 1320 s | Cc1oc(-c2cccc(Cl)c2)nc1Cn1nnc(-c2nc(-c3ccccc3)no2)c1C |
| 693 s | O=C(CC1=C2CCCCC2NC1=O)Nc1ccccc1F (stereo unspecified) |
| 1110 s | Cc1noc(C)c1-c1ccc(S(=O)(=O)N2CC=C(c3ccccc3)CC2)cc1 |
| 749 s | COC(=O)c1cc(OCC(=O)NCc2ccc3c(c2)OCO3)c2cc(OC)ccc2n1 |
